In US7678833B2 (Allium Vitalis Incorporated, priority 2006, dated 2010):
Entries after “also recorded” stand apart in the source; their conditions may differ. Where two headings read alike, the source gives them in different places.

Legend:
[1] = tested on: red blood cells (RBCs); assay: SAMC incubated with red blood cells: formation and localization of AllylSH and DADS; assay type: cell-based; conditions: for extracellular AllylSH concentration: RBCs with 0.5 mM SAMC
Description: For these experiments, 0.25 ml of packed RBCs were suspended in 1.75 ml of phosphate buffer solution (PBS) along with an initial concentration 0.5 mM of SAMC.
The experimental results are graphed in FIG. 3.
The significant effect of glucose is due in part to the energy requirement for the reduction of GSSG to GSH by glutathione reductase, and the need for this “reductive power” to increase the concentration of thiols relative to the concentration of disulfides.

[2] = plasma albumin level as measure of plasma thiol/disulfide redox (applicant); assay type: in vivo, human
From the text: Subsequently, an alternative, simpler assay procedure for the thiol/disulfide ratio was found in the literature. Other researchers had determined that the level of plasma albumin correlates linearly with the thiol/disulfide redox (BLOOD92:59, in which paper this redox relationship is expressed by the cystine/thiol ratio).
This method of determination of the plasma redox is of great interest to the applicant because the albumin concentration is one of the standard measurements performed in medical lab reports. This meant that historical data was available that could show the age-related decline in albumin level and confirm its reversal with the administration of dietary supplement capsules containing protein bound allyl mercaptan. It could also be used to confirm that the effect was reversible (by discontinuing the administration of the capsules) and repeatable (by the resumption of the administration of the capsules).
The historical albumin levels for the applicant are as follows:
Over the next 3 months, an experiment was performed to determine whether this effect was reversible, and then to see if the effect was repeatable:
The age related initial decline of approximately −0.05 per year is also shown extended by a dotted trend line. The presumed departure from the trend that occurred when the supplement use was started is indicated by the first solid line segment.

[3] = n-octanol/water; cited from earlier work
[4] = 8 weeks, 8000 mg/day; cited from earlier work
[5] = HIV patients, 7 months, 600 mg/day to 3600 mg/day; cited from earlier work
[6] = in vivo; cited from earlier work
[7] = tested on: cells; conditions: cited from earlier work
[8] = first hour after consumption; cited from earlier work
[9] = tested on: mucosal cell; conditions: within 3 hours; cited from earlier work
[10] = tested on: trypsin enzyme inhibitor; conditions: soy flour, cysteine 2% by weight, 65 degrees C. for 1 hour; cited from earlier work
[11] = tested on: acetaminophen; conditions: mice, cited from earlier work
[12] = tested on: heapatocytes; conditions: hepatocytes exposed to acetaminophen, among 8 cysteine prodrugs tested; cited from earlier work
[13] = cited from earlier work

Question: Which results are given for `C=CCS` [AllylSH, AllylThiol]?
Answer: membrane permeability [1]: membrane permeable; extracellular AllylSH concentration ([1]; fed glucose): continued to rise significantly; extracellular AllylSH concentration ([1]; glucose starved): no increase in AllylSH after the initial rise; albumin level ([2]; 180 mg AllylSH each day): 5.1 g/dL; albumin level ([2]; +1 mo., AllylSH consumption discontinued): 4.9 g/dL; albumin level ([2]; donor one, ~20 mg AllylSH each day): 5.0 g/dL; albumin level ([2]; donor two, ~20 mg AllylSH each day): 5.0 g/dL; albumin level ([2]; second +1 mo., AllylSH consumption still discontinued): 4.5 g/dL; albumin level ([2]; third +1 mo., consumption resumed at 180 mg AllylSH/day): 4.7 g/dL; albumin level ([2]; ~5 mg AllylSH/day): 4.6 g/dL

Question: For `C=CCSSCC=C` [DADS, Diallyl Disulfide], which partition coefficient [3] is on record?
Answer: The partition coefficient was 25.

Question: Which toxicity [4] does the source give for `CC(=O)N[C@@H](CS)C(=O)O` [NAC, N-acetylcysteine] here?
Answer: The toxicity was “no reported toxicity”.

Question: And the “whole blood glutathione increase” value [4]?
Answer: The value was “approximately 10%”.

Question: What about the plasma albumin increase [5] of the same compound?
Answer: The plasma albumin increase was “approximately 5%”.

Question: What about the toxicity [6] of the same compound?
Answer: Its toxicity is “relatively non-toxic”.

Question: Which toxicity [6] does the source give for `O=C1N[C@H](C(=O)O)CS1` [OTZ, L-2-Oxo-thiazolidine] here?
Answer: Its toxicity is “relatively non-toxic”.

Question: What does the source list for `C=CCSSC[C@H](N)C(=O)O` [SAMC, S-AllylMercaptoCysteine]?
Answer: intracellular formation of AllylSH ([1]; RBCs, 0.5 mM SAMC, 10 and 30 minutes, with glucose (10 mM) vs without glucose): significantly higher; total glutathione level of cells [7]: significantly increase; also recorded: significant increases

Question: For `Cc1c(C)c2c(c(C)c1O)CC[C@@](C)(CCC[C@H](C)CCC[C@H](C)CCCC(C)C)O2` [alpha-tocopherol, reference compound], which partition coefficient [3] is on record?
Answer: Its partition coefficient is 550.

Question: For `[AsH3]` [arsenic], which “excreted directly from the liver to the bile” value [8] is on record?
Answer: Its value is ~40%.

Question: What about the “glutathione concentration in the mucosal cell” value [9] of the same compound?
Answer: The value was “twice the normal concentration”.

Question: Which “deactivation of trypsin enzyme inhibitor” value [10] does the source give for `N[C@@H](CS)C(=O)O` [cysteine, Cysteine] here?
Answer: The value was “over 90%”.

Question: Which results are given for D-glucose-L-cysteine [DGC]?
Answer: hepatic injury from acetaminophen administration ([11]; administered 4 hours previously): significantly reduced; hepatic injury from acetaminophen administration ([11]; administered simultaneously): not effective; raising the GSH level [12]: most effective

Question: Which liver glutathione level ([13]; protein deficient (6%) rats, control 74) does the source give for sodium arsenate here?
Answer: The liver glutathione level was 134 micrograms per gram.

Question: And the liver glutathione level ([13]; well fed rats (18% protein in the diet), control 88)?
Answer: Its liver glutathione level is 123 micrograms per gram.
